In patent publication US11180474B2 (BRISTOL-MYERS SQUIBB COMPANY, priority 2016, dated 2021):

Key:
[1] = test system: Imiquimod-induced psoriasis; experiment: Imiquimod induced psoriasis in mice; format: in vivo, mouse; settings: male C57BL/6 mice, vs vehicle control
Procedure: Imiquimod Induced Psoriasis:
Male C57BL/6 mice of 8-9 week age were used to evaluate the impact of TLR7/8/9 inhibitors on Imiquimod-induced psoriasis. Mice (7 to 10 per group) were randomized into different treatment groups based on body weight. Mice from the respective treatment groups were treated orally, once daily for 6 days with vehicle or test compound. Psoriasis was induced by application of imiquimod cream on the shaved back region of the mice everyday for 6 days. Disease severity was monitored daily by recording of skin thickness, erythema and scaling. A cumulative disease score was also calculated to reflect the impact on the overall severity of inflammation in this model. At the end of experiment, all mice were euthanized by CO2 asphyxiation and skin samples were subjected for histology. At the end of experiment, one way ANOVA with Dunnett's test was performed to calculate the significance of test compound treated group vs. vehicle control group. Overall percent reduction in imiquimod induced psoriasis was calculated for test compound treated group vs vehicle control group.

human TLR9 = molecular target: T1, human TLR9 (Homo sapiens, UniProt Q9NR96); experiment: TLR9 inhibition reporter assay (HEK-Blue cells, SEAP reporter, ODN2006 stimulation); format: cell-based; settings: HEK-Blue cells overexpressing human TLR9, ODN2006 5 nM
T1 construct: host or cells: HEK-Blue cells
T1 sequence (Q9NR96 26-1032): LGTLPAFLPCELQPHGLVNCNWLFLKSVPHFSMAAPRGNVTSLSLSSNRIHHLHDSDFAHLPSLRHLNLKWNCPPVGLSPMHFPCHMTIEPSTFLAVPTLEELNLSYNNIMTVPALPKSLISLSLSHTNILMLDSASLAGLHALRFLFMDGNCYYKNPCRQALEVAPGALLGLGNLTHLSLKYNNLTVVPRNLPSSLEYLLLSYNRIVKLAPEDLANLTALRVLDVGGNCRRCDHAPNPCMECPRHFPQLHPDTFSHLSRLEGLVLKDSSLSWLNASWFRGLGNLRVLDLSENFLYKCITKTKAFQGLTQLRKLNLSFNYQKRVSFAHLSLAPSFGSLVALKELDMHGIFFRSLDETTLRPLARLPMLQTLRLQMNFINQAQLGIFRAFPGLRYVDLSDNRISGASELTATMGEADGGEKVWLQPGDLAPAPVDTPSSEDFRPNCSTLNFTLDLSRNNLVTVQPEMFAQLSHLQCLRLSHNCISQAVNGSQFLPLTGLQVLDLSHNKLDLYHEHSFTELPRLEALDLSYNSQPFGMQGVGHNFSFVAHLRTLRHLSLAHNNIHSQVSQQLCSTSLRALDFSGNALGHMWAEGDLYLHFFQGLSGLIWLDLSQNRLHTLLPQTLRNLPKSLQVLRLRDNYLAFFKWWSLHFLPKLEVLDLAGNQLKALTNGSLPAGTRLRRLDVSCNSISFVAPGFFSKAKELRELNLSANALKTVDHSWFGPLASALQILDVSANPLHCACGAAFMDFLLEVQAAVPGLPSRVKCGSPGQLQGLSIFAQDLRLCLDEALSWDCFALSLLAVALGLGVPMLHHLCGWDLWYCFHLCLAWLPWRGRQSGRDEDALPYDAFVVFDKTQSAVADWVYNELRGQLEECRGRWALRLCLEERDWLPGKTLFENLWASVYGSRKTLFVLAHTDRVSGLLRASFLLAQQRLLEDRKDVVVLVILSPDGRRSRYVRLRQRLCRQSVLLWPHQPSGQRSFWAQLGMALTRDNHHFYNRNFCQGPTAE
Method in brief: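 HEK-Blue cells overexpressing human TLR7, TLR8 or TLR9 carry a SEAP reporter driven by NF-κB/AP-1 sites. Compounds (0.05 nM–50 μM) were preincubated 30 min at room temperature, then cells were stimulated with gardiquimod 7.5 μM (TLR7), R848 15.9 μM (TLR8) or ODN2006 5 nM (TLR9) for 22 h at 37 °C.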

[2] = 0.1 mg/kg orally once daily for 6 days
[3] = 1 mg/kg orally once daily for 6 days
[4] = 10 mg/kg orally once daily for 6 days
[5] = 30 mg/kg orally once daily for 6 days

- IC50 (human TLR9): 1.66 µM
Structure (SMILES): COc1ccc(-c2[nH]c3ccc(C4CCN(C(=O)CN(C)C)CC4)cc3c2C(C)C)cc1OC [Example 209, 1-(4-(2-(3,4-dimethoxyphenyl)-3-isopropyl-1H-indol-5-yl)piperidin-1-yl)-2-(dimethylamino)ethan-1-one]
- % inhibition Cumulative score [1, 2]: 3%
- % inhibition Erythema [1, 2]: 3%
- % inhibition Scaling [1, 2]: 13%
- % inhibition Skin Thickness [1, 2]: 0%
- % inhibition Cumulative score [1, 3]: 27%
- % inhibition Erythema [1, 3]: 26%
- % inhibition Scaling [1, 3]: 38%
- % inhibition Skin Thickness [1, 3]: 18%
- % inhibition Cumulative score [1, 4]: 40%
- % inhibition Erythema [1, 4]: 41%
- % inhibition Scaling [1, 4]: 50%
- % inhibition Skin Thickness [1, 4]: 29%
- % inhibition Cumulative score [1, 5]: 49%
- % inhibition Erythema [1, 5]: 53%
- % inhibition Scaling [1, 5]: 63%
- % inhibition Skin Thickness [1, 5]: 32%
